Earlier results on one compound are cited in patent US20060281749A1, “Method for treating glaucoma IV B” (priority 2000, published 2006).

Each structure is given as a SMILES string.

In data set [1] the test system is Rhesus monkeys. Conditions: drug treated vs. control eye, baseline and pilocarpine-stimulated conditions.
Data set [2] relates to Rhesus monkeys. Particulars: accommodative responses to i.m. pilocarpine.

With `Cc1sc[n+](CC(=O)c2ccccc2)c1C.[Cl-]` [4,5-dimethyl-3-(2-oxoethyl-phenethyl) thiazolium chloride], the “improvement in ophthalmologic function (increase in outflow facility)” value with Rhesus monkeys [1] was “improvement has been illustrated”. Moreover, the Improvement in accommodation entry with Rhesus monkeys [2] is listed as “Improvement in accommodation has been illustrated”.
